# Measured values taken from US20260193239A1, “NOVEL COMPOUNDS” (Hoffmann-La Roche Inc., priority 2023, published 2026).
# Tests used:
# P-gp = biological target: T1, P-gp (Homo sapiens, UniProt P08183); assay: Transcellular P-gp assay; type: in vitro ADME; conditions: LLC-PK1 cells over-expressing human P-gp; for Papp: read-out: Permeation
# T1 construct: expressed in transfected cells; host or cells: LLC-PK1 cells (porcine kidney epithelial cells)
# Text: The general assay uses transfected LLC-PK1 cells (porcine kidney epithelial cells) over-expressing human or mouse P-gp, cultured on 96 well semi-permeable filter membrane plates, where they form a polarized monolayer with tight junctions, and act as a barrier between the apical and basolateral compartment.
# P-gp is expressed in the apical-facing membrane of the monolayer.
# The tightness of the cell monolayer and functional activity of P-gp are confirmed by addition of a cell-impermeable marker, Lucifer yellow, and a reference P-gp substrate, edoxaban, respectively.
# NLRP3 [1] = biological target: T2, NLRP3 (Homo sapiens, UniProt Q96P20); assay: THP-1 cells pyroptosis assay; type: cell-based; set-up: Seed THP-1 cells (25,000 cells/well) containing 1.0 μg/ml LPS; host or cells: THP-1 cells, LPS-primed and nigericin-stimulated; conditions: 1 μg/ml LPS, nigericin 5 μM, resazurin readout
# T2 sequence (Q96P20 whole entry): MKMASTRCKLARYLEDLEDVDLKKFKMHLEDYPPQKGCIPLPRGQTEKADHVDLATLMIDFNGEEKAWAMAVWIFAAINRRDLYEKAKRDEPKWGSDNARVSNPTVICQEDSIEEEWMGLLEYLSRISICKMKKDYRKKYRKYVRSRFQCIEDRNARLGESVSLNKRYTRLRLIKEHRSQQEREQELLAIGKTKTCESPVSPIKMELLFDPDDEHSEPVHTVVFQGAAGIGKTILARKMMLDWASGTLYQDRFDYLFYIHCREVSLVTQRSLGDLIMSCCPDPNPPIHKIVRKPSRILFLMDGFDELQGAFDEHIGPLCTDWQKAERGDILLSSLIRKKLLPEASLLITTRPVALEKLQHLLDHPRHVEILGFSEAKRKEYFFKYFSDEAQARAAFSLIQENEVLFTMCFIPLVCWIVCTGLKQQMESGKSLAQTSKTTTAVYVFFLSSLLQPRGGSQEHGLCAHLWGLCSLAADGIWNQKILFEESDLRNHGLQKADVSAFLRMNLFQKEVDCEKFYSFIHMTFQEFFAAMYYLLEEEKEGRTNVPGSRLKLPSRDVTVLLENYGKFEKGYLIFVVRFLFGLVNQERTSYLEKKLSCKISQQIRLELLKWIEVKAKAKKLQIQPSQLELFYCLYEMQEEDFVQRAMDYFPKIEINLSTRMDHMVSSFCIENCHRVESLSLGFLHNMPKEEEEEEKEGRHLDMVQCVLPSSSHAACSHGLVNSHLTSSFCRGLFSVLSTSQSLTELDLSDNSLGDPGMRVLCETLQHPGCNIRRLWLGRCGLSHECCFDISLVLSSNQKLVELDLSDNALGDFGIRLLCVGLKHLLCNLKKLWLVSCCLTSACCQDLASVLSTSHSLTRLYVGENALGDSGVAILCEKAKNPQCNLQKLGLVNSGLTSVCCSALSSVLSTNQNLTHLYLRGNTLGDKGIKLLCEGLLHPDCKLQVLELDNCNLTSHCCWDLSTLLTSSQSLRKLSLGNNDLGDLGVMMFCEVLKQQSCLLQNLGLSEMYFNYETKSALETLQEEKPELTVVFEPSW
# Method: The cells were routinely passaged and grown to confluency (~10^6 cells/ml). On the day of the experiment, THP-1 cells were harvested and resuspended into RPMI medium (without FBS). […] To this diluted cell solution was added LPS (Sigma #L4524) to give a 1 μg/ml Final Assay Concentration (FAC). 40 μl of the final preparation was aliquoted into each well of a 96-well plate. The plate thus prepared was used for compound screening.
# NLRP3 [2] = biological target: T2, NLRP3; assay: Human whole blood IL-1β release assay; type: cell-based; set-up: Human whole blood in Li-heparin tubes was obtained from healthy donors; from tissue; host or cells: human whole blood from healthy donors, LPS-primed and nigericin-stimulated; conditions: 1 μg/ml LPS, nigericin 10 μM, IL-1β by AlphaLisa
# Text: For systemic delivery, the ability to inhibit NLRP3 when the compounds are present within the bloodstream is of great importance. For this reason, the NLRP3 inhibitory activity of a number of compounds in human whole blood was investigated in accordance with the following protocol.
# Human whole blood in Li-heparin tubes was obtained from healthy donors from a volunteer donor panel.
# T1 sequence (P08183 whole entry): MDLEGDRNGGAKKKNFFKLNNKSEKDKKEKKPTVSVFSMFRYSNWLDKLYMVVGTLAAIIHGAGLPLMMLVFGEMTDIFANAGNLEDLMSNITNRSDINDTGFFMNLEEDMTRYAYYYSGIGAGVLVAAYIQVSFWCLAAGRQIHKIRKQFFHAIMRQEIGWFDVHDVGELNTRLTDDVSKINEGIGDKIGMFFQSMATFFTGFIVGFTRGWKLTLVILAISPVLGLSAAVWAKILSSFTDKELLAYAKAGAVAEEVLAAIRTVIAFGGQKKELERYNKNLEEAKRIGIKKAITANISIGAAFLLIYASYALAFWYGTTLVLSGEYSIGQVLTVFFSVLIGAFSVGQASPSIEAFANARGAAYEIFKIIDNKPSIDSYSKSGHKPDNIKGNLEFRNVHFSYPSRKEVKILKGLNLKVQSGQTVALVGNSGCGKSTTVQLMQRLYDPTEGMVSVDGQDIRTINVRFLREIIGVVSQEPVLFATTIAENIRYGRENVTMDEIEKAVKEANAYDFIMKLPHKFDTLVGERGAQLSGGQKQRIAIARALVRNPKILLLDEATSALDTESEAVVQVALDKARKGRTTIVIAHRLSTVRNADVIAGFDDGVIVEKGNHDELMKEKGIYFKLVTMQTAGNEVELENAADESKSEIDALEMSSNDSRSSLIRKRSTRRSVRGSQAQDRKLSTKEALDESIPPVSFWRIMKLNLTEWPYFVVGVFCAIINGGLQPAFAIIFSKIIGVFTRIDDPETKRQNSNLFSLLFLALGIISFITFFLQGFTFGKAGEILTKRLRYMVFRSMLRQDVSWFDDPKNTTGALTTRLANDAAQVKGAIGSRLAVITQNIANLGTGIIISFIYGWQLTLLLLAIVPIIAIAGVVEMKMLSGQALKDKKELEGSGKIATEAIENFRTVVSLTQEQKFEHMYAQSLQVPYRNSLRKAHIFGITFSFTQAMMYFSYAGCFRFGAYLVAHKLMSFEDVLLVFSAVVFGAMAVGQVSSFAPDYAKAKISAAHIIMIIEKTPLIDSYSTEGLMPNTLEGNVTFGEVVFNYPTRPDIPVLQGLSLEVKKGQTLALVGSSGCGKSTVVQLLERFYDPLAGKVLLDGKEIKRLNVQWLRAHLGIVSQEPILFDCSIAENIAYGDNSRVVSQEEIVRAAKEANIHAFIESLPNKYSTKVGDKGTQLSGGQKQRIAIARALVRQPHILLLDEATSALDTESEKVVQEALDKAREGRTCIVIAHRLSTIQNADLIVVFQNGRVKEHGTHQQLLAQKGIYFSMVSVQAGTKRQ
Structure (SMILES),efflux ratio (P-gp),Papp (P-gp),IC50 (NLRP3 [1]),IC50 (NLRP3 [2]),Permeation (P-gp)
"CCN1CCC[C@@H](Nc2nnc(-c3c(C)cc4c(c3O)CCO4)n(CC)c2=O)C1 (atropisomer, axis not shown) [Example 2b, P-4-ethyl-6-[[(3R)-1-ethyl-3-piperidyl]amino]-3-(4-hydroxy-6-methyl-2,3-dihydrobenzofuran-5-yl)-1,2,4-triazin-5-one]",8,3.7 ×10⁻⁶ cm/s,–,–,–
"CCN1CCC[C@@H](Nc2nnc(-c3c(CO)cc4c(c3O)CCO4)n(C)c2=O)C1 (atropisomer, axis not shown) [Example 5, 3-[4-Hydroxy-6-(hydroxymethyl)-2,3-dihydrobenzofuran-5-yl]-4-methyl-6-[[(3R)-1-ethyl-3-piperidyl]amino]-1,2,4-triazin-5-one]",–,–,139 nM,–,–
"CCN1CCC[C@@H](Nc2nnc(-c3c(CO)cc4c(c3O)CCO4)n(C)c2=O)C1 (atropisomer, axis not shown) [Example 5a, (M or P)-3-[4-Hydroxy-6-(hydroxymethyl)-2,3-dihydrobenzofuran-5-yl]-4-methyl-6-[[(3R)-1-ethyl-3-piperidyl]amino]-1,2,4-triazin-5-one]",–,–,84 nM,103 nM,–
"CCc1cc2c(c(O)c1-c1nnc(N[C@@H]3CCCN(CCO)C3)c(=O)n1C)CCO2 (atropisomer, axis not shown) [Example 8b, P-3-(6-ethyl-4-hydroxy-2,3-dihydrobenzofuran-5-yl)-6-[[(3R)-1-(2-hydroxyethyl)-3-piperidyl]amino]-4-methyl-1,2,4-triazin-5-one]",1,0.9 ×10⁻⁶ cm/s,16 nM,64 nM,–
"CCn1c(-c2c(C)cc3c(c2O)CCO3)nnc(N[C@@H]2CCCN(CCO)C2)c1=O (atropisomer, axis not shown) [Example 9b, (P or M)-4-ethyl-6-[[(3R)-1-(2-hydroxyethyl)-3-piperidyl]amino]-3-(4-hydroxy-6-methyl-2,3-dihydrobenzofuran-5-yl)-1,2,4-triazin-5-one]",2,0.8 ×10⁻⁶ cm/s,118 nM,204 nM,–
"CCN1CCC[C@@H](Nc2nnc(-c3c(C)cc(C(F)(F)F)cc3O)n(C)c2=O)C1 (atropisomer, axis not shown) [Reference Example RE-B, 6-[[(3R)-1-Ethyl-3-piperidyl]amino]-3-[2-hydroxy-6-methyl-4-(trifluoromethyl)phenyl]-4-methyl-1,2,4-triazin-5-one, reference compound]",7.6,5.6 ×10⁻⁶ cm/s,–,–,–
"CCc1cc2c(c(O)c1-c1nnc(N[C@@H]3CCCN(CC)C3)c(=O)n1C)CCO2 (single isomer, unassigned) [Example 1b]",11,4.5 ×10⁻⁶ cm/s,–,–,–
"CCN1CCC[C@@H](Nc2nnc(-c3c(C)cc4c(c3O)CCO4)n(C)c2=O)C1 (single isomer, unassigned) [Example 3b]",10,5.3 ×10⁻⁶ cm/s,–,–,–
"CCN1CCC[C@@H](Nc2nnc(-c3c(CO)cc4c(c3O)CCO4)n(C)c2=O)C1 (single isomer, unassigned) [Example 5b, (P or M)-3-[4-Hydroxy-6-(hydroxymethyl)-2,3-dihydrobenzofuran-5-yl]-4-methyl-6-[[(3R)-1-ethyl-3-piperidyl]amino]-1,2,4-triazin-5-one]",–,–,966 nM,–,–
"CCN1CCC[C@@H](Nc2nnc(-c3c(COC)cc4c(c3O)CCO4)n(C)c2=O)C1 (single isomer, unassigned) [Example 6a, (M or P)-3-[4-Hydroxy-6-(methoxymethyl)-2,3-dihydrobenzofuran-5-yl]-4-methyl-6-[[(3R)-1-ethyl-3-piperidyl]amino]-1,2,4-triazin-5-one]",–,–,> 1000 nM,–,–
"CCN1CCC[C@@H](Nc2nnc(-c3c(COC)cc4c(c3O)CCO4)n(C)c2=O)C1 (single isomer, unassigned) [Example 6b]",1,1.1 ×10⁻⁶ cm/s,15 nM,29 nM,–
"CCN1CCCC(Nc2nnc(-c3c(COC)cc4c(c3O)CCC4)n(C)c2=O)C1 [Example 7b, P-6-[[(3R)-1-ethyl-3-piperidyl]amino]-3-[4-hydroxy-6-(methoxymethyl)indan-5-yl]-4-methyl-1,2,4-triazin-5-one]",12,5.1 ×10⁻⁶ cm/s,–,–,–
"CCN1CCC[C@@H](Nc2nnc(-c3ccc4c(c3O)CCO4)n(C)c2=O)C1 [Reference Example RE-A, 6-[[(3R)-1-Ethyl-3-piperidyl]amino]-3-(4-hydroxy-2,3-dihydrobenzofuran-5-yl)-4-methyl-1,2,4-triazin-5-one, reference compound]",–,–,–,–,249 nm/s
